Assay results: the supplement of paper PMC11208160

test: recombinant UMI read abundance after kanamycin selection (control-corrected) (log10(CPM+1)); higher = more efficient recombination; extreme values may be limits of the assay; sequences stand for … in AGTGCAGAGAAAATCGGCCAGTTTTCTCTGCCTGCAGTCCGCATGCCGTGGGACCCCTTGGGTTCTAACCTGTTGCCTAGATTTATGCAGCGGACTGCCTTTCTCCCAAAGTGATAAACCGG…AGGTTGGTTTCACT; site = the 11-nt donor
Experimental: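 Pooled E. coli donor-specificity screen for the IS621 bridge recombinase. Each library member carries a reprogrammed 11-nt donor and a full-length LE bridge RNA expressed in cis from the natural promoter, with a paired donor-binding loop (8-nt LDG + 4-nt RDG) and a target-binding loop fixed to T5. It is co-electroporated with a T5 target plasmid; recombinase is induced with 0.07 mM IPTG and recombinants are selected on kanamycin. UMIs are counted as CPM, averaged over two biological replicates and corrected by the unselected control. Molecule = full bridge RNA written as DNA, built from the T5 scaffold: LDG = donor specificity nt 1-8, RDG = reverse complement of nt 8-11.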
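Further: IS621 bridge recombinase in Escherichia coli cells against a fixed T5 target plasmid.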

Sequence	recombinant UMI read abundance (log10)
ACACATCCATGGACCGGTTTTCCCGGTAATCCGTATTTGAG (site ACACATCCTGT)	0
ACACATCCATGGACCGGTTTTCCCGGTAATCCGTATTTGAG (site ACACATCCTTT)	0.381
ACACCTACATGGACCGGTTTTCCCGGTAATCCGTATTTGTG (site ACAACTACTCA)	0.0154
ACACCTACATGGACCGGTTTTCCCGGTAATCCGTATTTGTG (site ACACCTACTCA)	0.165
ACACCTACATGGACCGGTTTTCCCGGTAATCCGTATTTGTG (site ACAGCTACTCA)	0.0267
ACACCTACATGGACCGGTTTTCCCGGTAATCCGTATTTGTG (site ACATCTACTCA)	0.028
ACACGAGCATGGACCGGTTTTCCCGGTAATCCGTATTTGTC (site ACACGAACTGA)	2.63
ACACGAGCATGGACCGGTTTTCCCGGTAATCCGTATTTGTC (site ACACGACCTGA)	0
ACACGAGCATGGACCGGTTTTCCCGGTAATCCGTATTTGTC (site ACACGAGCTGA)	2.61
ACACGAGCATGGACCGGTTTTCCCGGTAATCCGTATTTGTC (site ACACGATCTGA)	2.27
ACACTAGCATGGACCGGTTTTCCCGGTAATCCGTATTTGCA (site ACACTAGCTTG)	1.05
ACACTAGCATGGACCGGTTTTCCCGGTAATCCGTATTTGCA (site ACAGTATCTTG)	0.00925
ACACTTACATGGACCGGTTTTCCCGGTAATCCGTATTTGGG (site ACACTTACTCC)	0.464
ACACTTCCATGGACCGGTTTTCCCGGTAATCCGTATTTGAC (site ACACATCCTGT)	1.66
ACACTTCCATGGACCGGTTTTCCCGGTAATCCGTATTTGAC (site ACACCTCCTGT)	1.29
ACACTTCCATGGACCGGTTTTCCCGGTAATCCGTATTTGAC (site ACACGTCCTGT)	1.08
ACACTTCCATGGACCGGTTTTCCCGGTAATCCGTATTTGAC (site ACACTTCCTGT)	0.338
ACAGAATCATGGACCGGTTTTCCCGGTAATCCGTATTTGCT (site ACAGAATCTAG)	2.19
ACAGAATCATGGACCGGTTTTCCCGGTAATCCGTATTTGCT (site ACAGTATCTTG)	0.97
ACAGAATCATGGACCGGTTTTCCCGGTAATCCGTATTTGGA (site ACAGAATCTTC)	2.48
ACAGAATCATGGACCGGTTTTCCCGGTAATCCGTATTTGGA (site ACAGTATCTTG)	0
ACAGAGACATGGACCGGTTTTCCCGGTAATCCGTATTTGCG (site ACAGAGACTCG)	2.84

Sequence	recombinant UMI read abundance (log10)
ACAGAGACATGGACCGGTTTTCCCGGTAATCCGTATTTGCG (site CCAGAGACTCG)	2.19
ACAGAGACATGGACCGGTTTTCCCGGTAATCCGTATTTGCG (site GCAGAGACTCG)	1.18
ACAGAGACATGGACCGGTTTTCCCGGTAATCCGTATTTGCG (site TCAGAGACTCG)	2.18
ACAGATACATGGACCGGTTTTCCCGGTAATCCGTATTTGCC (site ACAGATACTGG)	1.19
ACAGCATCATGGACCGGTTTTCCCGGTAATCCGTATTTGTA (site ACAGCATCTTA)	2.85
ACAGCATCATGGACCGGTTTTCCCGGTAATCCGTATTTGTA (site ACAGTATCTTG)	0
ACAGCGCCATGGACCGGTTTTCCCGGTAATCCGTATTTGTT (site ACAGCGCCTAA)	0.431
ACAGGGCCATGGACCGGTTTTCCCGGTAATCCGTATTTGCT (site ACAGGGCCTAG)	1.1
ACAGGTCCATGGACCGGTTTTCCCGGTAATCCGTATTTGGC (site ACAGGTCCTGC)	1.02
ACAGTAGCATGGACCGGTTTTCCCGGTAATCCGTATTTGCA (site ACAGTAACTTG)	2.58
ACAGTAGCATGGACCGGTTTTCCCGGTAATCCGTATTTGCA (site ACAGTACCTTG)	0
ACAGTAGCATGGACCGGTTTTCCCGGTAATCCGTATTTGCA (site ACAGTAGCTTG)	2.85
ACAGTAGCATGGACCGGTTTTCCCGGTAATCCGTATTTGCA (site ACAGTATCTTG)	2
ACAGTATCATGGACCGGTTTTCCCGGTAATCCGTATTTGCT (site ACAGTATCTAG)	2.8
ACAGTATCATGGACCGGTTTTCCCGGTAATCCGTATTTGCT (site ACAGTATCTCG)	1.11
ACAGTATCATGGACCGGTTTTCCCGGTAATCCGTATTTGCT (site ACAGTATCTGG)	2.29
ACAGTATCATGGACCGGTTTTCCCGGTAATCCGTATTTGCT (site ACAGTATCTTG)	2.22
ACAGTCTCATGGACCGGTTTTCCCGGTAATCCGTATTTGGA (site ACAGTATCTTG)	0
ACAGTCTCATGGACCGGTTTTCCCGGTAATCCGTATTTGGA (site ACAGTCTCTTC)	2.89
ACAGTGGCATGGACCGGTTTTCCCGGTAATCCGTATTTGCG (site ACAGTGGCTCG)	1.93
ACAGTGTCATGGACCGGTTTTCCCGGTAATCCGTATTTGCC (site ACAGTATCTTG)	2.05
ACAGTGTCATGGACCGGTTTTCCCGGTAATCCGTATTTGCC (site ACAGTGTCTGG)	2.88

Sequence	recombinant UMI read abundance (log10)
ACAGTTGCATGGACCGGTTTTCCCGGTAATCCGTATTTGCA (site ACAGTATCTTG)	0
ACAGTTGCATGGACCGGTTTTCCCGGTAATCCGTATTTGCA (site ACAGTTGCTTG)	1.81
ACAGTTTCATGGACCGGTTTTCCCGGTAATCCGTATTTGCA (site ACAGTATCTTG)	2.55
ACAGTTTCATGGACCGGTTTTCCCGGTAATCCGTATTTGCA (site ACAGTCTCTTG)	2.43
ACAGTTTCATGGACCGGTTTTCCCGGTAATCCGTATTTGCA (site ACAGTGTCTTG)	1.52
ACAGTTTCATGGACCGGTTTTCCCGGTAATCCGTATTTGCA (site ACAGTTTCTTG)	2.24
ACATACGCATGGACCGGTTTTCCCGGTAATCCGTATTTGGC (site ACATACGCTGC)	2.78
ACATCGACATGGACCGGTTTTCCCGGTAATCCGTATTTGTG (site ACATCAACTCA)	0.397
ACATCGACATGGACCGGTTTTCCCGGTAATCCGTATTTGTG (site ACATCCACTCA)	0.0171
ACATCGACATGGACCGGTTTTCCCGGTAATCCGTATTTGTG (site ACATCGACTCA)	0.245
ACATCGACATGGACCGGTTTTCCCGGTAATCCGTATTTGTG (site ACATCTACTCA)	0.00913
ACATCTACATGGACCGGTTTTCCCGGTAATCCGTATTTGAG (site ACATCTACTCA)	0.0306
ACATCTACATGGACCGGTTTTCCCGGTAATCCGTATTTGAG (site ACATCTACTCC)	0.184
ACATCTACATGGACCGGTTTTCCCGGTAATCCGTATTTGAG (site ACATCTACTCG)	0.0217
ACATCTACATGGACCGGTTTTCCCGGTAATCCGTATTTGAG (site ACATCTACTCT)	1.67
ACATCTACATGGACCGGTTTTCCCGGTAATCCGTATTTGTA (site ACATCTACTAA)	0.0109
ACATCTACATGGACCGGTTTTCCCGGTAATCCGTATTTGTA (site ACATCTACTCA)	0.0123
ACATCTACATGGACCGGTTTTCCCGGTAATCCGTATTTGTA (site ACATCTACTGA)	0
ACATCTACATGGACCGGTTTTCCCGGTAATCCGTATTTGTA (site ACATCTACTTA)	0.989
ACATCTCCATGGACCGGTTTTCCCGGTAATCCGTATTTGTG (site ACATCTACTCA)	0.0166
ACATCTCCATGGACCGGTTTTCCCGGTAATCCGTATTTGTG (site ACATCTCCTCA)	0.00967
